Reference: PubChem BioAssay (NCI)
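Following 48 hours of exposure in 96-well plates, responses at five concentrations were used to interpolate endpoints linearly. GI50 = concentration required for 50% inhibition of growth. The concentration for full growth arrest is given as TGI.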

Tests used:
Experiment in all cases: growth of human tumour cells (NCI), 48 h
786-0 renal = system: 786-0 renal
A498 renal = system: A498 renal
A549 NSCLC = system: A549 NSCLC
ACHN renal = system: ACHN renal
BT-549 breast = system: BT-549 breast
CAKI-1 renal = system: CAKI-1 renal
CCRF-CEM leukemia = system: CCRF-CEM leukemia
COLO 205 colon = system: COLO 205 colon
DU-145 prostate = system: DU-145 prostate
EKVX NSCLC = system: EKVX NSCLC
HCC-2998 colon = system: HCC-2998 colon
HCT-116 colon = system: HCT-116 colon
HCT-15 colon = system: HCT-15 colon
HL-60(TB) leukemia = system: HL-60(TB) leukemia
HOP-62 NSCLC = system: HOP-62 NSCLC
HS 578T breast = system: HS 578T breast
HT29 colon = system: HT29 colon
IGROV1 ovarian = system: IGROV1 ovarian
K-562 leukemia = system: K-562 leukemia
KM12 colon = system: KM12 colon
LOX IMVI melanoma = system: LOX IMVI melanoma
M14 melanoma = system: M14 melanoma
MALME-3M melanoma = system: MALME-3M melanoma
MCF7 breast = system: MCF7 breast
MDA-MB-231 breast = system: MDA-MB-231 breast
MOLT-4 leukemia = system: MOLT-4 leukemia
NCI-H226 lung = system: NCI-H226 lung
NCI-H23 lung = system: NCI-H23 lung
NCI-H460 lung = system: NCI-H460 lung
NCI-H522 lung = system: NCI-H522 lung
NCI/ADR-RES ovarian = system: NCI/ADR-RES ovarian
OVCAR-3 ovarian = system: OVCAR-3 ovarian
OVCAR-4 ovarian = system: OVCAR-4 ovarian
OVCAR-5 ovarian = system: OVCAR-5 ovarian
OVCAR-8 ovarian = system: OVCAR-8 ovarian
PC-3 prostate = system: PC-3 prostate
RPMI-8226 leukemia = system: RPMI-8226 leukemia
RXF 393 renal = system: RXF 393 renal
SF-268 CNS = system: SF-268 CNS
SF-295 CNS = system: SF-295 CNS
SF-539 CNS = system: SF-539 CNS
SK-MEL-2 melanoma = system: SK-MEL-2 melanoma
SK-MEL-28 melanoma = system: SK-MEL-28 melanoma
SK-MEL-5 melanoma = system: SK-MEL-5 melanoma
SK-OV-3 ovarian = system: SK-OV-3 ovarian
SN12C renal = system: SN12C renal
SNB-19 CNS = system: SNB-19 CNS
SNB-75 CNS = system: SNB-75 CNS
SR leukemia = system: SR leukemia
SW-620 colon = system: SW-620 colon
T-47D breast = system: T-47D breast
TK-10 renal = system: TK-10 renal
U251 CNS = system: U251 CNS
UACC-257 melanoma = system: UACC-257 melanoma
UACC-62 melanoma = system: UACC-62 melanoma
UO-31 renal = system: UO-31 renal

CCOC(=O)n1cc(C2=C(c3cn(C)c4ccccc34)COC2=O)c2ccccc21
GI50 (786-0 renal): 268 nM
TGI (786-0 renal): 15800 nM
GI50 (A498 renal): 39.1 nM
TGI (A498 renal): 644 nM
GI50 (A549 NSCLC): 166 nM
TGI (A549 NSCLC): > 100000 nM
GI50 (ACHN renal): 79.5 nM
TGI (ACHN renal): > 100000 nM
GI50 (BT-549 breast): 145 nM
TGI (BT-549 breast): 11100 nM
GI50 (CAKI-1 renal): 49.2 nM
TGI (CAKI-1 renal): 18500 nM
GI50 (CCRF-CEM leukemia): 218 nM
TGI (CCRF-CEM leukemia): > 100000 nM
GI50 (COLO 205 colon): 241 nM
TGI (COLO 205 colon): 2410 nM
GI50 (DU-145 prostate): 391 nM
TGI (DU-145 prostate): > 58000 nM
GI50 (EKVX NSCLC): 177 nM
TGI (EKVX NSCLC): > 100000 nM
GI50 (HCC-2998 colon): 167 nM
TGI (HCC-2998 colon): > 100000 nM
GI50 (HCT-116 colon): 51.5 nM
TGI (HCT-116 colon): 16800 nM
GI50 (HCT-15 colon): 38.2 nM
TGI (HCT-15 colon): > 63000 nM
GI50 (HL-60(TB) leukemia): 124 nM
TGI (HL-60(TB) leukemia): 511 nM
GI50 (HOP-62 NSCLC): 159 nM
TGI (HOP-62 NSCLC): 20400 nM
GI50 (HS 578T breast): 116 nM
TGI (HS 578T breast): 21100 nM
GI50 (HT29 colon): 46.4 nM
GI50 (IGROV1 ovarian): 56.4 nM
TGI (IGROV1 ovarian): > 45800 nM
GI50 (K-562 leukemia): 36.5 nM
TGI (K-562 leukemia): > 32200 nM
GI50 (KM12 colon): 47.1 nM
TGI (KM12 colon): > 100000 nM
GI50 (LOX IMVI melanoma): 132 nM
TGI (LOX IMVI melanoma): > 96600 nM
GI50 (M14 melanoma): 47.8 nM
TGI (M14 melanoma): > 100000 nM
GI50 (MALME-3M melanoma): 50.8 nM
TGI (MALME-3M melanoma): > 100000 nM
GI50 (MCF7 breast): 32 nM
TGI (MCF7 breast): > 100000 nM
GI50 (MDA-MB-231 breast): 347 nM
TGI (MDA-MB-231 breast): > 70500 nM
GI50 (MOLT-4 leukemia): 380 nM
TGI (MOLT-4 leukemia): > 48400 nM
GI50 (NCI-H226 lung): 452 nM
TGI (NCI-H226 lung): > 39000 nM
GI50 (NCI-H23 lung): 436 nM
TGI (NCI-H23 lung): 35500 nM
GI50 (NCI-H460 lung): 371 nM
TGI (NCI-H460 lung): > 100000 nM
GI50 (NCI-H522 lung): 27.8 nM
TGI (NCI-H522 lung): 1020 nM
GI50 (NCI/ADR-RES ovarian): 53.1 nM
GI50 (OVCAR-3 ovarian): 39.1 nM
TGI (OVCAR-3 ovarian): 277 nM
GI50 (OVCAR-4 ovarian): 69.2 nM
TGI (OVCAR-4 ovarian): > 100000 nM
GI50 (OVCAR-5 ovarian): 462 nM
TGI (OVCAR-5 ovarian): > 100000 nM
GI50 (OVCAR-8 ovarian): 312 nM
TGI (OVCAR-8 ovarian): > 100000 nM
GI50 (PC-3 prostate): 162 nM
TGI (PC-3 prostate): > 100000 nM
GI50 (RPMI-8226 leukemia): 143 nM
GI50 (RXF 393 renal): 35.6 nM
TGI (RXF 393 renal): 377 nM
GI50 (SF-268 CNS): 1020 nM
TGI (SF-268 CNS): 62900 nM
GI50 (SF-295 CNS): 46.4 nM
TGI (SF-295 CNS): 11000 nM
GI50 (SF-539 CNS): 119 nM
TGI (SF-539 CNS): 584 nM
GI50 (SK-MEL-2 melanoma): 500 nM
TGI (SK-MEL-2 melanoma): > 86100 nM
GI50 (SK-MEL-28 melanoma): 1030 nM
TGI (SK-MEL-28 melanoma): > 100000 nM
GI50 (SK-MEL-5 melanoma): 35.9 nM
TGI (SK-MEL-5 melanoma): 393 nM
GI50 (SK-OV-3 ovarian): 1970 nM
TGI (SK-OV-3 ovarian): 56800 nM
GI50 (SN12C renal): 306 nM
TGI (SN12C renal): > 100000 nM
GI50 (SNB-19 CNS): 259 nM
TGI (SNB-19 CNS): > 63200 nM
GI50 (SNB-75 CNS): 24.8 nM
TGI (SNB-75 CNS): 1220 nM
GI50 (SR leukemia): 44.9 nM
TGI (SR leukemia): 16400 nM
GI50 (SW-620 colon): 72.4 nM
TGI (SW-620 colon): > 100000 nM
GI50 (T-47D breast): 338 nM
TGI (T-47D breast): > 100000 nM
GI50 (TK-10 renal): 10000 nM
TGI (TK-10 renal): 31000 nM
GI50 (U251 CNS): 274 nM
TGI (U251 CNS): 22100 nM
GI50 (UACC-257 melanoma): 3520 nM
TGI (UACC-257 melanoma): > 100000 nM
GI50 (UACC-62 melanoma): 59.9 nM
TGI (UACC-62 melanoma): > 55600 nM
GI50 (UO-31 renal): 78.1 nM
TGI (UO-31 renal): > 100000 nM
